Assay results: PubChem BioAssay AID248 (DTP/NCI, 2004)
Inconclusive results and toxic doses are left out. Rule as the data show it: active = T/C of 150% or more; inactive = T/C below 125%.

System: L1210 leukemia ip in BDF1 mice, survival T/C
Assay: NCI In Vivo Anticancer Drug Screen. Data for tumor model L1210 Leukemia (intraperitoneal) in B6D2F1 (BDF1) mice
Conditions: endpoint: mean survival time, higher = longer survival
Summary of the method: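 Tumor cells were implanted, animals were treated, and survival was followed. The result divides the treated measurement by the vehicle-control measurement.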

[1] = dose: 100.0 mg/kg/injection, schedule: Q04DX003 (ip), vehicle: Klucel (hydroxypropylcellulose) (HPC)
[2] = dose: 200.0 mg/kg/injection, schedule: Q04DX003 (ip), vehicle: Klucel (hydroxypropylcellulose) (HPC)
[3] = dose: 400.0 mg/kg/injection, schedule: Q04DX003 (ip), vehicle: Klucel (hydroxypropylcellulose) (HPC)
[4] = dose: 200.0 mg/kg/injection, schedule: Q01DX001 (ip), vehicle: other
[5] = dose: 50.0 mg/kg/injection, schedule: Q01DX001 (ip), vehicle: saline
[6] = dose: 100.0 mg/kg/injection, schedule: Q01DX001 (ip), vehicle: saline
[7] = dose: 200.0 mg/kg/injection, schedule: Q01DX001 (ip), vehicle: saline
[8] = dose: 100.0 mg/kg/injection, schedule: Q01DX009 (ip), vehicle: Klucel (hydroxypropylcellulose) (HPC)
[9] = dose: 200.0 mg/kg/injection, schedule: Q01DX009 (ip), vehicle: Klucel (hydroxypropylcellulose) (HPC)
[10] = dose: 400.0 mg/kg/injection, schedule: Q01DX009 (ip), vehicle: Klucel (hydroxypropylcellulose) (HPC)
[11] = dose: 100.0 mg/kg/injection, schedule: Q01DX001 (ip), vehicle: Klucel (hydroxypropylcellulose) (HPC)
[12] = dose: 400.0 mg/kg/injection, schedule: Q01DX001 (ip), vehicle: saline
[13] = dose: 100.0 mg/kg/injection, schedule: Q04DX003 (ip), vehicle: saline
[14] = dose: 200.0 mg/kg/injection, schedule: Q04DX003 (ip), vehicle: saline
[15] = dose: 400.0 mg/kg/injection, schedule: Q04DX003 (ip), vehicle: saline
[16] = dose: 100.0 mg/kg/injection, schedule: Q01DX001 (ip), vehicle: carboxymethylcellulose (CMC)
[17] = dose: 200.0 mg/kg/injection, schedule: Q01DX001 (ip), vehicle: carboxymethylcellulose (CMC)
[18] = dose: 400.0 mg/kg/injection, schedule: Q01DX001 (ip), vehicle: carboxymethylcellulose (CMC)

Measured: T/C

OCC1OC(c2[nH]nc3c([Se])ncnc23)C(O)C1O (stereo not given)
inactive: dose: 1.56 mg/kg/injection, schedule: Q01DX005 (ip), vehicle: saline 95 % of control | dose: 1.56 mg/kg/injection, schedule: Q01DX009 (ip), vehicle: saline 95 % of control | dose: 3.12 mg/kg/injection, schedule: Q01DX005 (ip), vehicle: saline 97 % of control | dose: 3.12 mg/kg/injection, schedule: Q01DX009 (ip), vehicle: saline 100 % of control | dose: 6.25 mg/kg/injection, schedule: Q01DX005 (ip), vehicle: saline 99 % of control | dose: 6.25 mg/kg/injection, schedule: Q01DX009 (ip), vehicle: saline 97 % of control | dose: 12.5 mg/kg/injection, schedule: Q01DX009 (ip), vehicle: saline 90 % of control

N=Nc1c2ccccc2c2nc3c(N)[nH]nc(N)c3nc12
inactive: dose: 100.0 mg/kg/injection, schedule: Q04DX002 (ip), vehicle: Klucel (hydroxypropylcellulose) (HPC) 107 % of control | dose: 200.0 mg/kg/injection, schedule: Q04DX002 (ip), vehicle: Klucel (hydroxypropylcellulose) (HPC) 103 % of control | dose: 400.0 mg/kg/injection, schedule: Q04DX002 (ip), vehicle: Klucel (hydroxypropylcellulose) (HPC) 100 % of control

CCc1nc2ccc(N=Cc3ccc(N(CCCl)CCCl)cc3C)cc2[nH]1
inactive: [1] 101 % of control | [2] 98 % of control | [3] 101 % of control

COC(=O)c1ccccc1-c1ccccc1C(=O)O
inactive: dose: 44.0 mg/kg/injection, schedule: Q01DX001 (ip), vehicle: other 101 % of control | dose: 66.0 mg/kg/injection, schedule: Q01DX001 (ip), vehicle: other 106 % of control | dose: 100.0 mg/kg/injection, schedule: Q01DX001 (ip), vehicle: other 93 % of control | dose: 150.0 mg/kg/injection, schedule: Q01DX001 (ip), vehicle: other 95 % of control | [4] 98 % of control | dose: 400.0 mg/kg/injection, schedule: Q01DX001 (ip), vehicle: other 98 % of control

CN1CC(C)(C)C(O)c2ccccc21 (stereo not given)
inactive: dose: 25.0 mg/kg/injection, schedule: Q04DX002 (ip), vehicle: other 100 % of control | dose: 50.0 mg/kg/injection, schedule: Q04DX002 (ip), vehicle: other 90 % of control | dose: 100.0 mg/kg/injection, schedule: Q04DX002 (ip), vehicle: other 107 % of control

CN(C)Cc1ccc(NC(=O)c2ccc(C(=O)Nc3ccc(CN(C)C)cc3)cc2)cc1
inactive: dose: 15.0 mg/kg/injection, schedule: Q01DX Z (ip), vehicle: carboxymethylcellulose (CMC) 103 % of control | dose: 30.0 mg/kg/injection, schedule: Q01DX Z (ip), vehicle: carboxymethylcellulose (CMC) 106 % of control | dose: 60.0 mg/kg/injection, schedule: Q01DX Z (ip), vehicle: carboxymethylcellulose (CMC) 106 % of control | dose: 120.0 mg/kg/injection, schedule: Q01DX Z (ip), vehicle: carboxymethylcellulose (CMC) 117 % of control

CCCCN(CCO)C(C#CC(C)(C)O)C(C)C (stereo not given)
inactive: dose: 100.0 mg/kg/injection, schedule: Q04DX003 (ip), vehicle: saline with Tween-80 95 % of control | dose: 200.0 mg/kg/injection, schedule: Q04DX003 (ip), vehicle: saline with Tween-80 101 % of control

CC1=Nc2ccccc2NC(C)(C)C1
inactive: dose: 100.0 mg/kg/injection, schedule: Q04DX002 (ip), vehicle: saline 102 % of control | [1] 100 % of control | dose: 200.0 mg/kg/injection, schedule: Q04DX002 (ip), vehicle: saline 102 % of control | [2] 98 % of control | [3] 98 % of control

Cc1ccc([I+]c2ccccc2C(=O)[O-])c(C)c1
inactive: [5] 98 % of control | [6] 102 % of control | [7] 104 % of control

COc1ccc2c(c1C)OC(C)C2=O (stereo not given)
inactive: [8] 93 % of control | [1] 101 % of control | [9] 92 % of control | [2] 104 % of control | [10] 104 % of control | [3] 97 % of control

O=C(O)CSC1(SCC(=O)O)CCCCC1
inactive: [11] 103 % of control | dose: 200.0 mg/kg/injection, schedule: Q01DX001 (ip), vehicle: Klucel (hydroxypropylcellulose) (HPC) 97 % of control | dose: 400.0 mg/kg/injection, schedule: Q01DX001 (ip), vehicle: Klucel (hydroxypropylcellulose) (HPC) 97 % of control

Cc1ccc(N(C)C(=O)c2ccccc2S)cc1
inactive: [6] 105 % of control | [7] 105 % of control | [12] 109 % of control

COCCOC(=O)CCCCC(=O)OCCOC
inactive: [13] 107 % of control | [14] 100 % of control | [15] 94 % of control

COc1cc(Cc2cc(OC)c(OC)cc2[N+](=O)[O-])c([N+](=O)[O-])cc1OC
inactive: [13] 108 % of control | [14] 108 % of control | [15] 120 % of control

CCOC(=O)CCCN(c1ccc(OC)c(OC)c1)S(=O)(=O)c1ccc(C)cc1
inactive: [16] 97 % of control | [17] 105 % of control | [18] 94 % of control

N#CC(Nc1ccccc1)c1ccccc1 (stereo not given)
inactive: [8] 91 % of control | [1] 97 % of control | [9] 96 % of control | [2] 95 % of control | [3] 104 % of control

CCN(CC)CCN1C(=O)[C@H]2CC=CC[C@H]2C1=O
inactive: dose: 44.0 mg/kg/injection, schedule: Q01DX Z (ip), vehicle: saline 111 % of control | dose: 66.0 mg/kg/injection, schedule: Q01DX Z (ip), vehicle: saline 100 % of control | dose: 100.0 mg/kg/injection, schedule: Q01DX Z (ip), vehicle: saline 98 % of control

CC(CO)(CO)N=Cc1cc(Br)ccc1O
inactive: [16] 102 % of control | [17] 100 % of control | [18] 86 % of control

O=C(CBr)OCCCS(=O)(=O)O
inactive: dose: 100.0 mg/kg/injection, schedule: Q01DX009 (ip), vehicle: saline 96 % of control | [13] 105 % of control | dose: 200.0 mg/kg/injection, schedule: Q01DX009 (ip), vehicle: saline 113 % of control | [14] 104 % of control | dose: 400.0 mg/kg/injection, schedule: Q01DX009 (ip), vehicle: saline 102 % of control | [15] 93 % of control

O=C(O)C12C3(Cl)C4(Cl)C(O)(O)C5(Cl)C3(Cl)C1(Cl)C5(Cl)C42Cl (stereo not given)
inactive: [5] 102 % of control | [6] 105 % of control | [7] 96 % of control | [12] 110 % of control

CCCCCCCCCCCCCCCCC/C=N\NC(=O)CCCC(=O)N/N=C/CCCCCCCCCCCCCCCCC
inactive: dose: 50.0 mg/kg/injection, schedule: Q01DX001 (ip), vehicle: other 90 % of control | [4] 88 % of control

COC(=O)c1ccccc1NC(=O)Cc1ccccc1
inactive: [8] 91 % of control | [9] 98 % of control | [10] 98 % of control

c1ccc(C2=NC2c2ccccc2)cc1 (stereo not given)
inactive: dose: 25.0 mg/kg/injection, schedule: Q01DX001 (ip), vehicle: Klucel (hydroxypropylcellulose) (HPC) 97 % of control | dose: 50.0 mg/kg/injection, schedule: Q01DX001 (ip), vehicle: Klucel (hydroxypropylcellulose) (HPC) 96 % of control | [11] 105 % of control

O=C1C=C(C(=O)O)C(c2ccccc2)CC1 (stereo not given)
inactive: [8] 88 % of control | [1] 100 % of control | [9] 95 % of control | [2] 95 % of control | [10] 98 % of control | [3] 98 % of control

[Cu+2].[O-]c1ccc(Br)c2cccnc12.[O-]c1ccc(Br)c2cccnc12
inactive: dose: 25.0 mg/kg/injection, schedule: Q01DX001 (ip), vehicle: carboxymethylcellulose (CMC) 103 % of control | dose: 50.0 mg/kg/injection, schedule: Q01DX001 (ip), vehicle: carboxymethylcellulose (CMC) 105 % of control

CCN(CC)S(=O)(=O)c1ccc(Nc2nc(Cl)nc(Cl)n2)cc1
inactive: dose: 12.5 mg/kg/injection, schedule: Q01DX009 (ip), vehicle: Klucel (hydroxypropylcellulose) (HPC) 113 % of control | dose: 12.5 mg/kg/injection, schedule: Q04DX003 (ip), vehicle: Klucel (hydroxypropylcellulose) (HPC) 102 % of control | dose: 25.0 mg/kg/injection, schedule: Q01DX009 (ip), vehicle: Klucel (hydroxypropylcellulose) (HPC) 97 % of control | dose: 25.0 mg/kg/injection, schedule: Q04DX003 (ip), vehicle: Klucel (hydroxypropylcellulose) (HPC) 100 % of control | dose: 50.0 mg/kg/injection, schedule: Q01DX009 (ip), vehicle: Klucel (hydroxypropylcellulose) (HPC) 113 % of control | dose: 50.0 mg/kg/injection, schedule: Q04DX003 (ip), vehicle: Klucel (hydroxypropylcellulose) (HPC) 95 % of control
